Data from patent publication US7732398B2, “Medicinal uses of mu-opioid receptor agonists” (Cornell Research Foundation, Inc., priority 2000, dated 2010).
“Also recorded” adds a separate entry of the source.

Experiments:
[1] = In vivo pharmacokinetics in sheep; conditions: preliminary data, compared with DALDA and [Dmt1]DALDA
Procedure: Five or more days were allowed for recovery from surgery prior to experimental studies.
In vivo pharmacokinetic studies In order to avoid the rapid distribution phase associated with intravenous bolus administration, all three peptides were administered as constant rate intravenous infusions to sheep. […] DALDA (0.6 mg/kg/hr) and [Dmt^1]DALDA (0.06 mg/kg/hr) were, therefore, infused via the venous catheter for a period of 4 hr. […] The current limit of sensitivity of the analytical method prevented the use of an even lower dose of [Dmt^1]DALDA. Blood samples (5 ml) were collected from the arterial catheter at 0, 1, 2, 3, 3.5, 4, 4.25, 4.5, 5, 6 and 7 hr.
Pharmacokinetic Analyses Plasma levels of DAMGO, DALDA and [Dmt^1]DALDA during and after the 4 h infusion were subjected to compartmental analysis using nonlinear regression (WINNONLIN). The derived pharmacokinetic constants were used to calculate the apparent volume of distribution at steady state (Vd), elimination half-life (t1/2) and clearance (CL).

Male Sprague-Dawley rats = assay: Rat tail-flick test, antinociceptive effects after intrathecal administration; type: in vivo; conditions: yohimbine 100 μg alone, intrathecal
Procedure: Male Sprague-Dawley rats (300-350 g) were used.
Under light halothane anesthesia a needle connected to a Hamilton syringe was inserted percutaneously between spinal processes of the third and fourth lumbar vertebrae into the intrathecal space. A quick flick of the tail was observed when the tip of the needle entered the intrathecal space and was used as an indicator of successful puncture (Mestre et al., 1994). Drugs were delivered in a volume of 5 μl.
Intrathecal catheterization was performed at least two days prior to the experiment as previously described (Shimoyama et al., 1996). Briefly, under halothane anesthesia, a PE-10 tube was inserted through a small hole made in the atlanto-occipital membrane and threaded 8.5 cm down the intrathecal space to the lumbosacral level of the spinal cord. Drugs were delivered via the catheter in a volume of 5 μl, followed by 10 μl saline to flush the catheter.
To assess the antinociceptive effects of the opioids, the tail-flick test was used. Radiant heat was applied to the tail at 5-8 cm from the tip using a tail-flick apparatus (IITC, Woodland Hills, Calif.). The time from the onset of the heat to the withdrawal of the tail (tail-flick latency) was measured. The intensity of the radiant heat was adjusted so that baseline latencies would fall between 2.5 and 3.5 seconds. To avoid tissue damage the heat stimulus was discontinued after seven seconds. A baseline latency was obtained for each animal prior to the administration of any drug. Subsequent response latencies were determined at designated time points. Analgesic testing was performed by a blinded investigator.
Cumulative dose-response studies were performed for each drug using the tail-flick test (Shimoyama et al., 1996), (Shimoyama et al., 1997). Each drug was tested in a group of ten rats. After measuring the baseline latencies, increasing doses of each drug were administered via an intrathecal catheter until each animal in the group became an analgesic responder. An analgesic responder was defined as one whose response tail-flick latency was two or more times the value of the baseline latency. The response latency after each dosing was determined at peak analgesia, which was 15, 30 and 45 min after the administration of the MOR, DALDA and [Dmt^1]DALDA, respectively (based on preliminary studies). Any subsequent dosing was performed immediately after the determination of response latency. The percentage of analgesic responders in the group of rats for each cumulative dose was calculated, and a cumulative dose-response curve was constructed. The dose-response data were analyzed by the BLISS-21 computer program. This program maximized the log-likelihood function to fit a parallel set of gaussian normal sigmoid curves to the dose-response data and provides ED50 values, 95% confidence interval (CI) and relative potency estimates (Umans and Inturrisi, 1981).
The effect of naloxone on the antinociceptive effects of intrathecal MOR, DALDA and [Dmt^1]DALDA was examined. An equipotent dose (3 times the ED50 value determined in Study 1) of MOR, DALDA or [Dmt^1]DALDA was given via an intrathecal catheter. Tail-flick latencies were measured prior to the administration of any drug and at the time of peak analgesia for each compound (at 15, 30 and 45 minutes after administration, for MOR, DALDA and [Dmt^1]DALDA, respectively). Naloxone hydrochloride at a dose of 82.5 nmol or saline was administered via the intrathecal catheter 10 minutes prior to the second tail-flick testing. Four rats were tested for each combination of drugs. Data were analyzed using the paired t-test.
A dose 3 times the ED50 value of MOR, DALDA, or [Dmt^1]DALDA was administered intrathecally. Tail-flick latencies were measured prior to the administration of any drug (=baseline latency) and at the time of peak analgesia (=response latency). […]

In the case of `C[C@@H](NC(=O)[C@@H](N)Cc1ccc(O)cc1)C(=O)NCC(=O)N(C)[C@@H](Cc1ccccc1)C(=O)NCCO` [DAMGO], the elimination in sheep [1] is reported as “much more rapid elimination”.
With `COC(=O)[C@@H]1[C@H]2C[C@H]3c4[nH]c5ccccc5c4CCN3C[C@@H]2CC[C@@H]1O` [Yohimbine, yohimbine, reference compound] the “effect on tail-flick latency” value (Male Sprague-Dawley rats) was “no effect; also recorded: not having any effect on tail-flick latency by itself”.
